Data as given in ChEMBL document CHEMBL5113470, “Regioselective pyrrolizidine bis-spirooxindoles as efficient anti-amyloidogenic agents” (2022).
Calls of active or inactive are those of the source. The calls are words filed in the database; no cut-off is given here.

Tests used:
Gallus gallus [1] = species: Gallus gallus; assay: Inhibition of Hen egg white lysozyme fibril formation by Thioflavin T spectroscopic assay relative to control; design: concentration or dose not given beside the values; conditions: dose or concentration not given here
[2] = Inhibition of HEWL fibril-induced toxicity in human HEK cells assessed as cell viability by MTT assay ( Rvb = 55.2 +/- 7.2%); assay type: functional
Gallus gallus [3] = species: Gallus gallus; assay: Inhibition of Hen egg white lysozyme fibril formation assessed as shorter fibrils after day 7 by TEM analysis
Gallus gallus [4] = species: Gallus gallus; assay: Inhibition of Hen egg white lysozyme fibril formation by Circular dichroism
Gallus gallus [5] = species: Gallus gallus; assay: Inhibition of Hen egg white lysozyme fibril formation assessed as decrease in conformational transition from alpha-helix to beta-sheet after 7 days by Raman spectroscopic assay; conditions: time 7.0 day

Structure (SMILES): CC[C@H]1CN2CC[C@]3(C(=O)Nc4ccccc43)[C@@H]2C[C@@H]1/C(=C\OC)C(=O)OC [RHYNCHOPHYLLINE]
- inhibition (Gallus gallus [1]): 37.6%
- Activity [2]: 77%

Structure (SMILES): O=C(O[C@@H]1Cc2c(O)cc(O)cc2O[C@@H]1c1cc(O)c(O)c(O)c1)c1cc(O)c(O)c(O)c1
- inhibition (Gallus gallus [1]): 24.4%

Structure (SMILES): COc1ccc(C(=O)[C@@H]2C3CCCN3[C@@]3(C(=O)Nc4ccccc43)[C@@]23C(=O)Nc2ccccc23)cc1 (some centres undefined)
- inhibition (Gallus gallus [3]): Active
- inhibition (Gallus gallus [4]): Active
- inhibition (Gallus gallus [5]): Active
- inhibition (Gallus gallus [1]): 45.3%
- Activity [2]: 47.7%

Structure (SMILES): COc1cccc(C(=O)[C@@H]2C3CCCN3[C@@]3(C(=O)Nc4ccccc43)[C@@]23C(=O)Nc2ccccc23)c1 (some centres undefined)
- inhibition (Gallus gallus [3]): Active
- inhibition (Gallus gallus [4]): Active
- inhibition (Gallus gallus [5]): Active
- inhibition (Gallus gallus [1]): 20.3%
- Activity [2]: 64.8%

Structure (SMILES): O=C(c1ccccc1)[C@@H]1C2CCCN2[C@@]2(C(=O)Nc3ccccc32)[C@@]12C(=O)Nc1ccccc12 (some centres undefined)
- inhibition (Gallus gallus [3]): Active
- inhibition (Gallus gallus [4]): Active
- inhibition (Gallus gallus [5]): Active
- inhibition (Gallus gallus [1]): 22.7%
- Activity [2]: 59.6%

Structure (SMILES): CC[C@H]1CN2CC[C@@]3(C(=O)Nc4ccccc43)[C@@H]2C[C@@H]1/C(=C\OC)C(=O)OC
- inhibition (Gallus gallus [1]): 30.4%
